Assay results taken from patent publication US11203633B2, “Polynucleotides encoding antibodies or antigen binding fragments thereof that bind pseudomonas perv” (priority 2011, dated 2021).

Tests used:
[1] = tested on: P. aeruginosa strains (PAO1, 33356, 6294, 6077, 6206); assay: Acute pneumonia model in mice, organ burden (CFU in lung, spleen, kidneys); type: in vivo, Pseudomonas aeruginosa
Method: (§1) Antibodies or PBS were administered 24 hours before infection in each model. P. aeruginosa acute pneumonia, keratitis, and thermal injury infection models were performed as described (DiGiandomenico, A., et al., Proc Natl Acad Sci USA 104, 4624-4629 (2007)), with modifications. In the acute pneumonia model, BALB/c mice (The Jackson Laboratory) were infected with P. aeruginosa strains suspended in a 0.05 ml inoculum. In the thermal injury model, CF-1 mice (Charles River) received a 10% total body surface area burn with a metal brand heated to 92° C. for 10 seconds. Animals were infected subcutaneously with P. aeruginosa strain 6077 at the indicated dose. For organ burden experiments, acute pneumonia was induced in mice followed by harvesting of lungs, spleens, and kidneys 24 hours post-infection for determination of CFU.
Organ burden of Pseudomonas-infected mice was also studied in response to administration of V2L2. FIG. 14 (A) Mice were treated with either 1 mg/kg R347 (control), or 1 mg/kg, 0.2 mg/kg, or 0.07 mg/kg of V2L2 and then were infected intranasally with 1.2×10^6 cfu of Pseudomonas 6206. FIG. 14 (B) Mice were also treated with either 15 mg/kg R347 (negative control); 15.0 mg/kg, 5.0 mg/kg, or 1.0 mg/kg mAb166 (positive control); or 5.0 mg/kg, 1.0 mg/kg, or 0.2 mg/kg V2L2 and then were infected intranasally with 5.5×10^6 cfu of Pseudomonas 6206.
The in vivo effect of combination administration of anti-Psl and anti-PcrV binding domains was further studied in mice using the antibodies V2L2 and WapR-004 (RAD). Groups of mice were treated with R347 (2.1 mg/kg—negative control), V2L2 (0.1 mg/kg), W4-RAD (0.5 mg/kg), or V2L2/W4 combination (either 0.1, 0.5, 1.0 or 2.0 mg/kg each). Twenty-four hours post-administration of antibody, all mice were infected with an inoculum containing 5.25×10^5 cfu 6206 (O11-ExoU+). Twenty-four hours post infection, lungs, spleens, and kidneys were harvested, homogenized, and plated for colony forming unit (CFU) identification per gram of tissue.

[2] = tested on: luminescent P. aeruginosa serogroup 05 strain (PAO1.lux); assay: Opsonophagocytic killing (OPK) assay, PAO1.lux; type: cell-based, Pseudomonas aeruginosa
Method: (§2) This example describes the evaluation of prioritized human IgG1 antibodies to promote OPK of P. aeruginosa. […] OPK assays were performed as described in (DiGiandomenico, A., et al., Infect Immun 72, 7012-7021 (2004)), with modifications. Briefly, assays were performed in 96-well plates using 0.025 ml of each OPK component; P. aeruginosa strains; diluted baby rabbit serum; differentiated HL-60 cells; and monoclonal antibody. In some OPK assays, luminescent P. aeruginosa strains, which were constructed as described (Choi, K. H., et al., Nat Methods 2, 443-448 (2005)), were used. Luminescent OPK assays were performed as described above but with determination of relative luciferase units (RLUs) using a Perkin Elmer ENVISION Multilabel plate reader (Perkin Elmer).

[3] = tested on: P. aeruginosa strain 6077 (O11-cytotoxic); assay: Corneal infection (ocular keratitis) model in mice; type: in vivo, Pseudomonas aeruginosa
[4] = tested on: P. aeruginosa strains 6077, 6206, 6294; assay: Thermal injury model in mice, survival; type: in vivo, Pseudomonas aeruginosa; conditions: 6077 2×10^5 CFU, FIG. 8E
Method: as §1
Survival effect of the Bs4-GLO bispecific antibody was evaluated in a P. aeruginosa thermal injury model against different P. aeruginosa strains. […] Animals were treated with Bs4-GLO or […] to induction of thermal injury and subcutaneous infection with P. aeruginosa strain (A) 6077 (O11-ExoU^+) or (B) 6206 (O11-ExoU^+) or (C) 6294 (06) directly under the wound.
(A) Animals were treated with Bs4-GLO or R347 (A) 4h hours or (B) 12 hours after induction of thermal injury and subcutaneous infection with P. aeruginosa strain 6077 (O11-ExoU^+) directly under the wound.

[5] = tested on: luminescent P. aeruginosa serogroup 011 strain (9882-80.lux); assay: OPK assay, 9882-80.lux; type: cell-based, Pseudomonas aeruginosa; conditions: strain 9882-80 (O11); FIG. 2B
Method: as §2
The ability of the WapR-004 and Cam-003 antibodies to mediate OPK activity against another clinically relevant 0-antigen serotype strain, 9882-80.lux, was evaluated.

**Q.** What does the source list for “Cam-003: anti-Psl human IgG1 monoclonal antibody; VH SEQ ID NO:1, VL SEQ ID NO:2”?
**A.** viable CFU vs. R347, Mann-Whitney U-test P ([1]; 6077 1×10^6 CFU, lung, 45 mg/kg, FIG. 7D): 0.0005; viable CFU vs. R347, Mann-Whitney U-test P ([1]; 6077, kidneys, 5 mg/kg, FIG. 7D): 0.0021; viable CFU vs. R347, Mann-Whitney U-test P ([1]; 6077, kidneys, 15 mg/kg, FIG. 7D): 0.0355; viable CFU vs. R347, Mann-Whitney U-test P ([1]; 6077, kidneys, 45 mg/kg, FIG. 7D): 0.0191; viable CFU vs. R347, Mann-Whitney U-test P ([1]; 6077, lung, 5 mg/kg, FIG. 7D): 0.0007; viable CFU vs. R347, Mann-Whitney U-test P ([1]; 6077, lung, 15 mg/kg, FIG. 7D): 0.0003; viable CFU vs. R347, Mann-Whitney U-test P ([1]; 6077, spleen, 5 mg/kg, FIG. 7D): 0.0089; viable CFU vs. R347, Mann-Whitney U-test P ([1]; 6077, spleen, 15 mg/kg, FIG. 7D): 0.0089; viable CFU vs. R347, Mann-Whitney U-test P ([1]; 6077, spleen, 45 mg/kg, FIG. 7D): 0.0015; viable CFU vs. R347, Mann-Whitney U-test P ([1]; 6294 6.25×10^6 CFU, lung, 5 mg/kg, FIG. 7C): 0.0068; viable CFU vs. R347, Mann-Whitney U-test P ([1]; 6294 6.25×10^6 CFU, lung, 15 mg/kg, FIG. 7C): 0.0039; viable CFU vs. R347, Mann-Whitney U-test P ([1]; 6294 6.25×10^6 CFU, lung, 45 mg/kg, FIG. 7C): 0.0003; viable CFU vs. R347, Mann-Whitney U-test P ([1]; 6294 6.25×10^6 CFU, spleen, 5 mg/kg, FIG. 7C): 0.0012; viable CFU vs. R347, Mann-Whitney U-test P ([1]; 6294 6.25×10^6 CFU, spleen, 15 mg/kg, FIG. 7C): 0.0230; viable CFU vs. R347, Mann-Whitney U-test P ([1]; 6294 6.25×10^6 CFU, spleen, 45 mg/kg, FIG. 7C): 0.0057; viable CFU vs. R347, Mann-Whitney U-test P ([1]; 33356 1×10^7 CFU, lung, 45 mg/kg, FIG. 7B): 0.0010; viable CFU vs. R347, Mann-Whitney U-test P ([1]; 33356, lung, 5 mg/kg, FIG. 7B): 0.0045; viable CFU vs. R347, Mann-Whitney U-test P ([1]; PAO1 1.1×10^7 CFU, lung, 45 mg/kg, FIG. 7A): 0.0015; viable CFU vs. R347, Mann-Whitney U-test P ([1]; PAO1, kidneys, 15 mg/kg, FIG. 7A): 0.0056; viable CFU vs. R347, Mann-Whitney U-test P ([1]; PAO1, kidneys, 45 mg/kg, FIG. 7A): 0.0092; viable CFU vs. R347, Mann-Whitney U-test P ([1]; PAO1, lung, 5 mg/kg, FIG. 7A): 0.0015; viable CFU vs. R347, Mann-Whitney U-test P ([1]; PAO1, lung, 15 mg/kg, FIG. 7A): 0.0021; viable CFU vs. R347, Mann-Whitney U-test P ([1]; PAO1, spleen, 15 mg/kg, FIG. 7A): 0.0367; viable CFU vs. R347, Mann-Whitney U-test P ([1]; PAO1, spleen, 45 mg/kg, FIG. 7A): 0.0120; organ burden, dose dependence ([1]; cytotoxic strain 6077, FIG. 7D): the low dose was as effective as the higher dose; dissemination to the spleen and kidneys ([1]; mice infected with PAO1, 6294 and 6077, FIG. 7A, C, D): marked effect in reducing dissemination to the spleen and kidneys; lung burden ([1]; strains PAO1, 33356, 6294, 6077, FIG. 7A-D): effective at reducing P. aeruginosa lung burden against all four strains tested; OPK EC50 ([2]; FIG. 9A, unit inferred): 0.06 µg/mL; OPK activity (killing of PAO1.lux) ([2]; purified human IgG1 mAbs from phage panning, FIG. 2A): superior OPK activity; difference vs control IgG1 (pathology scores / viable CFU), Mann-Whitney U-test P ([3]; 15 mg/kg, FIG. 8C): 0.0003; difference vs control IgG1 (pathology scores / viable CFU), Mann-Whitney U-test P ([3]; 15 mg/kg, FIG. 8D): 0.0015; difference vs control IgG1 (pathology scores / viable CFU), Mann-Whitney U-test P ([3]; 45 mg/kg, FIG. 8A): 0.0001; corneal pathology and bacterial counts vs negative control-treated animals ([3]; 6077, antibody 24 hours prior to infection, FIG. 8A-D, F-G): significantly less pathology and reduced bacterial counts in total eye homogenates; survival R347 vs. Cam-003, log-rank P ([4]; 5 mg/kg): 0.0017; survival R347 vs. Cam-003, log-rank P ([4]; 15 mg/kg): 0.0094; protection compared to the antibody-treated control ([4]; CF-1 mice): significant protection at 15 and 5 mg/kg; OPK activity [5]: OPK activity extends to strain 9882-80 (O11)
